A word on the inhibition: it is the relative decrease from the control value, in per cent.

Each structure is given as a SMILES string.

In this experiment the target is T1, BACE1 enzyme (Homo sapiens, UniProt P56817).
T1 construct: purchased Life Technologies P2985
T1 sequence (P56817 46-501): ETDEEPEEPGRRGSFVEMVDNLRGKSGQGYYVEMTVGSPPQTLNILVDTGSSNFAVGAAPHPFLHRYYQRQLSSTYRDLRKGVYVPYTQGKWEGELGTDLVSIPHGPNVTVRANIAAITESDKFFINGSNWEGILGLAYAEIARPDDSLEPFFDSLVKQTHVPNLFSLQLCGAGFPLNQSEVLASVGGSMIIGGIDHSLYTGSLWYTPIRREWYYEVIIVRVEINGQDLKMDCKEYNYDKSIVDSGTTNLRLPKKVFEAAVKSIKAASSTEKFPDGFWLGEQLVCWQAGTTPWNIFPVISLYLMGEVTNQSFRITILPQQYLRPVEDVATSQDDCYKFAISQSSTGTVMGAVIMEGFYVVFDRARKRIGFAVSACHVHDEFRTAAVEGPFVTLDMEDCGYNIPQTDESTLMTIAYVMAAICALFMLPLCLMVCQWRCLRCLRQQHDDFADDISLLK
Nature of the experiment: BACE1 efficacy assay (FRET-based, commercial BACE1 kit). Format: biochemical. The conditions noted are these: test compound 10 μM. The procedure: The efficacy assay was performed as a FRET-based assay using a commercially available BACE1 kit (Life Technologies, P2985). 2 μl test compound at 10 μM (final concentration) and 15 μl BACE1 enzyme from the kit (final concentration 3 nM) were preincubated for 15 minutes at room temperature before addition of […] of substrate from the kit (250 nM final concentration) and incubated for additional 90 minutes at room temperature. The assay plate was subsequently read in a Pherastar (Ex540/Em590). […] The efficacy of the test compounds was evaluated at 10 μM (final concentration) and defined as the percent inhibition of the enzyme activity using the equation % inhibition=100%−normalized enzyme activity in percent.
As for `COc1ccc(C(=O)Nc2ccc(F)c([C@@]3(C)N=C(N)[C@@](C)(F)CC3(F)F)c2)nc1` [Compound 17, N-(3-((2R,5S)-6-amino-3,3,5-trifluoro-2,5-dimethyl-2,3,4,5-tetrahydropyridin-2-yl)-4-fluorophenyl)-5-methoxypicolinamide], the inhibition at 10 µM was 101%.
As to `Cc1cc(C#N)cnc1C(=O)Nc1ccc(F)c([C@@]2(C)N=C(N)[C@@](C)(F)CC2(F)F)c1` [Compound 18, N-(3-((2R,5S)-6-amino-3,3,5-trifluoro-2,5-dimethyl-2,3,4,5-tetrahydropyridin-2-yl)-4-fluorophenyl)-5-cyano-3-methylpicolinamide], the inhibition at 10 µM came to 102%.
`C[C@@]1(F)CC(F)(F)[C@@](C)(c2cc(NC(=O)c3ccn(C(F)F)n3)ccc2F)N=C1N` [Compound 23, N-(3-((2R,5R)-6-amino-3,3,5-trifluoro-2,5-dimethyl-2,3,4,5-tetrahydropyridin-2-yl)-4-fluorophenyl)-1-(difluoromethyl)-1H-pyrazole-3-carboxamide]: the inhibition at 10 µM amounted to 102%.

(Values after patent US20170066741A1, “2-Amino-3,5,5-Trifluoro-3,4,5,6-Tetrahydropyridines as BACE1 Inhibitors for Treatment of Alzheimer's Disease” (H. Lundbeck A/S, priority 2014, published 2017).)
